Tested on: interstitiellen Kollagenase 1 (Matrixmetalloproteinase-1, MMP1)
Assay: Inhibition of UV-A-induced MMP1 mRNA expression in human dermal fibroblasts (real-time PCR, in vitro)
Assay type: cell-based
Details: 20 J/cm^2 UV-A, versus control
Description: Es wird die Hemmung der UV-A-induzierten Genexpression am Beispiel der interstitiellen Kollagenase 1 (Matrixmetalloproteinase-1, MMP1) in humanen dermalen Fibroblasten untersucht. Die UV-A-induzierte Expression von MMP1 mRNS wird mittels Echtzeit PCR (Polymerase-Kettenreaktion) aus Zellen, die 24 Stunden nach der Bestrahlung mit 20 J/cm^2 geerntet worden sind, im Vergleich zu unbehandelten zeitgleichen Kontrollen bestimmt.
Da Serum Vitamin-A enthält, werden die verwendeten Zellkulturen für 24 Stunden serum-depriviert. Zur Kontrolle wird die Genexpression an unbehandelten Zellen ohne und mit UV-A-Bestrahlung ermittelt. In einer Konzentrationsreihe von 0,1 bis 30 µM an zugesetztem Retinol wird jeweils die Genexpression der unbestrahlten und der mit UV-A bestrahlten Zellkulturen bestimmt.
Wiederum wird eine Kontrollmessung der Genexpression an unbehandelten Zellkulturen mit und ohne UV-A-Bestrahlung durchgeführt. Den Zellkulturen wird in einer Konzentrationsreihe zwischen 5 und 100µM Generol® R, ein käuflich erwerbbares Produkt der Cognis France SA zugefügt. Generol® R ist eine Mischung aus verschiedenen Phytosterolen und wird aus Raps gewonnen. Generol® R besteht zu 40 bis 60% aus Sitosterol, 25 bis 40% Campesterol, 7 bis 18% Brassicasterol und einem geringem Anteil an Stigmasterol. Zum Erreichen der beschriebenen Konzentrationsreihe wurde Generol® R entsprechend verdünnt. […]

SMILES | Hemmung der MMP1-Expression (Vitamin-A 10-25 µM (series 0,1-30 µM Retinol), serum-deprived 24 h, cells harvested 24 h after irradiation) [%] | Hemmung der MMP1 mRNS-Expression (Vitamin-E-Sukzinat 10-75 µM, 24 h after irradiation) [%]
CC1=C(/C=C/C(C)=C/C=C/C(C)=C/CO)C(C)(C)CCC1 [Vitamin-A, Retinol] | ≤ 82 | 
Cc1c(C)c2c(c(C)c1OC(=O)CCC(=O)O)CCC(C)(CCCC(C)CCCC(C)CCCC(C)C)O2 (centres unmarked) [Vitamin-E-Sukzinat] |  | ≤ 75

Reference: EP1779900A1, “Cosmetic or dermatological composition for prevention of light-induced aging” (Apotheker Walter Bouhon GmbH, priority 2005, dated 2007)
